The nature of data set [1]: Pharmacokinetic evaluation of oral administration in mice (tizoxanide in blood by LC/MS/MS). Type of data set: in vivo, ICR mice. To be noted: in words; for conversion to the active form tizoxanide in vivo: after oral administration in mice; for Area Under concentration-time Curve (AUC) compared to nitazoxanide: oral administration in mice. How it is done:
Sample preparation: 32.57 μmol of a test compound was dissolved in 100 μL dimethyl sulfoxide (DMSO), with the addition of 10 mL 0.5% Carboxyl Methyl Cellulose Sodium (CMC-Na) solution, to prepare a sample at 3.257 μmol/mL.
The test compounds refer to the compounds prepared in Examples of the invention and the positive control compound nitazoxanide. The experiment was carried out in two batches, wherein the first hatch of test compounds were Compound 1, 2, 6, 7, 8, 9 and the positive control compound nitazoxanide; and the second batch of test compounds were Compound 3, 4, 5, 12, 14, 17, 18 and positive control compound nitazoxanide.
Experimental method: ICR mice (SPS grade, male, […]), purchased from Beijing Vital River Laboratory Animal Technology Co., Ltd., were grouped randomly depending on body weight, 3 mice for each group. Nitazoxanide and a test compound were intragastrically administered separately to each mouse at a dose of 10 mL/kg (i.e., 32.57 μmol/kg of corresponding drug to each mouse), wherein nitazoxanide was used as positive control, and 0.1 ml blood was taken from veins of Fundus Oculi at 0.08, 0.25, 0.5, 1, 2, 4, 6, 8 and 12 h after administration, placed in a Heparin Sodium-containing centrifuge tube, and centrifuged for 20 min (at a relative centrifugal force (RCF) of 3000 g). The plasma was taken and stored in a −20° C. refrigerator for further detection.
During the detection, 50 μL plasma was taken, with the addition of an internal standard solution (5000 ng/mL glipizide aqueous solution, 10 μL), and the addition of acetonitrile (200 μL), and then mixed well. The mixture was vortexed for 3 min, and centrifuged for 10 min (at a relative centrifugal force (RCF) of 8500 g). The supernatant (50 μL) was well mixed with water (50 μL), and 10 μL was drawn for LC/MS/MS analysis, so as to detect the blood concentration of tizoxanide. The results are shown in Table 1, Table 2, Table 3, Table 4, FIG. 1, and FIG. 2.

A short description of data set [2]: Pharmacokinetic evaluation of oral administration and intravenous injection in rats. Type of data set: in vivo, SD rats. To be noted: rats; for MRT last: read-out: MRT(0-t). On the procedure: 9 SD rats (SPF grade, male, 200±10 g), provided by Laboratory Animal Center of the Academy of Military Medical Sciences, were grouped randomly, 3 […] for each group.
[…]; The plasma was separated and stored in a −20° C. refrigerator for further detection.
(2) Oral administration group of Compound 3, a dose of 15 mg/kg (equivalent to a dose of 41 μmol/kg tizoxanide); […]; The plasma was separated and stored in a −20° C. refrigerator for further detection.
(3) Oral administration group of nitazoxanide: a dose of 12.5 mg/kg (equivalent to a dose of 41 μmol/kg tizoxanide); administration volume: 2 mL/200 g rat (preparation of a test solution: 10.96 mg nitazoxanide was weighed accurately and dissolved by adding 600 μL DMSO, and […] sterile water was added to prepare a clear solution at 1.25 mg/mL); after oral administration of nitazoxanide at 12.5 mg/kg in rats, blood was taken before administration and at 0.08, 0.25, 0.5, 1, 2, 4, 6, 8, 12 and 24 h after administration. The plasma was separated and stored in a −20° C. refrigerator for further detection.
Treatment of plasma sample: 100 μL plasma was taken, 300 μL acetonitrile solution containing internal standard (500 nmol/L a solution of tolbutamide in acetonitrile) was added, and then mixed well. The mixture was vortexed for 1 min, and centrifuged at 4° C. for 10 min (at a relative centrifugal force (RCF) of 14000 g). The supernatant was taken, and 20 μL was drawn for LC/MS/MS analysis, so as to detect the blood concentration of tizoxanide and the prototype drug.

In data set [3] the test system is Helicobacter pylori. The settings on record: 103 strains of Helicobacter pylori; cited from earlier work.
Where [4] appears, read: Compound 3 in plasma, intravenous injection of Compound 3 (5 mg/kg).
Where [5] appears, read: Compound 3 in plasma, oral administration of Compound 3 (15 mg/kg).
Where [6] appears, read: male, SD, rat, in vivo, Compound 3 in plasma, intravenous injection of Compound 3 (5 mg/kg).
The mark [7] stands for this setting: male, SD, rat, in vivo, Compound 3 in plasma, oral administration of Compound 3 (15 mg/kg).
Where [8] appears, read: male, SD, rat, in vivo, intravenous injection of Compound 3 (5 mg/kg), read-out: plasma concentration of Compound 3.
Setting [9] is: male, SD, rat, in vivo, oral administration of Compound 3 (15 mg/kg), read-out: plasma concentration of Compound 3.

The text below walks through data of patent US10196411B2, “Tizoxanide phosphate and alkane sulfonate and pharmaceutical applications thereof” (priority 2014, dated 2019).

Structures can show the parent of a compound that is named as a salt. Where two headings read alike, the source gives them in different places.

In turn, `CC(C)(C)OC(=O)NCCS(=O)(=O)Oc1ccccc1C(=O)Nc1ncc([N+](=O)[O-])s1` displayed a melting point of 164 to 166 °C.

The compound `O=C(Nc1ncc([N+](=O)[O-])s1)c1ccccc1OP(=O)(OCc1ccccc1)OCc1ccccc1` [Compound 1, dibenzyl 2-(5-nitrothiazol-2-yl-carbamoyl)phenyl phosphate] had a melting point of 122 to 123 °C. Besides, in data set [1], the “conversion to the active form tizoxanide in vivo” value (“conversion … in vivo” below) is reported as “relatively complete” and the “Area Under concentration-time Curve (AUC) compared to nitazoxanide” value is recorded as “slightly higher”.

`O=C(Nc1ncc([N+](=O)[O-])s1)c1ccccc1OP(=O)(O)O` [Compound 2, 2-(5-nitrothiazol-2-yl-carbamoyl)phenyl dihydrogen phosphate] gave a melting point of 224 to 226 °C. For the same compound, in data set [1], the “conversion … in vivo” value is reported as “relatively complete”.

As for `O=C(Nc1ncc([N+](=O)[O-])s1)c1ccccc1OP(=O)(O)O` [Compound 3, 2-(5-nitrothiazol-2-yl-carbamoyl)phenyl hydrogen phosphate monosodium salt], in data set [2] (setting [4]), the CLz/F stood at 17.2 ± 2.83 mL/min/kg and the t1/2z came to 28.8 ± 16.8 min. Moreover, in data set [2] (setting [5]), the CLz/F came to 1879.8 ± 783.8 mL/min/kg, the F amounted to 2.4% and the t1/2z was determined as 100 ± 100 min. Also, in data set [2] (setting [6]), the AUC(0-inf) is 4920 ± 786 ng·h/mL, the AUC(0-t) turned out to be 4920 ± 786 ng·h/mL, the peak level (Cmax) was 26700 ± 6590 ng/mL and the MRT last turned out to be 15.6 ± 9 min. In data set [2] (setting [7]), the AUC(0-inf) was 154 ± 76.3 ng·h/mL, the AUC(0-t) turned out to be 119 ± 50 ng·h/mL, the Cmax turned out to be 100 ± 20 ng/mL and the time of peak concentration (Tmax) was determined as 15 min. In addition, the MRT last in data set [2] (setting [7]) is 73.2 ± 49.8 min. Also, in data set [2] (male, SD, rat, in vivo, Compound 3 in plasma, oral administration of Compound 3 (15 mg/kg), read-out: Vz/F), the Vd/F is 198 ± 118 L/kg. Besides, in data set [2] (setting [8]), the concentration at 0.03 h stood at 26700 ± 6590 ng/mL, the concentration at 0.08 h is 13300 ± 1390 ng/mL, the concentration at 0.25 h was found to be 3970 ± 1880 ng/mL and the concentration at 0.5 h worked out at 1730 ± 1250 ng/mL. Also, the concentration at 1 h in data set [2] (setting [8]) came to 345 ± 316 ng/mL. Also, in data set [2] (male, SD, rat, in vivo, intravenous injection of Compound 3 (5 mg/kg), 2 h, read-out: plasma concentration of Compound 3), the concentration at 2 h was 113 ± 83.4 ng/mL. Moreover, in data set [2] (male, SD, rat, in vivo, intravenous injection of Compound 3 (5 mg/kg), 4 h, read-out: plasma concentration of Compound 3), the concentration at 4 h was found to be 13.9 ± 1.9 ng/mL. Moreover, in data set [2] (setting [9]), the concentration at 0.03 h came to 55.3 ± 2.1 ng/mL, the concentration at 0.08 h worked out at 99.1 ± 22.1 ng/mL, the concentration at 0.25 h is 71.1 ± 7.3 ng/mL and the concentration at 0.5 h stood at 33 ± 3.2 ng/mL. Moreover, in data set [2] (setting [9]), the concentration at 1 h came to 24.4 ± 1.6 ng/mL. In addition, the “conversion to active form tizoxanide” value in data set [2] (oral administration or intravenous injection, in words) is listed as “quickly converted”.

`CS(=O)(=O)Oc1ccccc1C(=O)Nc1ncc([N+](=O)[O-])s1` [Compound 6, 2-(5-nitrothiazol-2-yl-carbamoyl)phenyl methanesulfonate] displayed a melting point of 188 to 190 °C. In addition, in data set [1], the “conversion … in vivo” value is given as “relatively complete” and the “Area Under concentration-time Curve (AUC) compared to nitazoxanide” value is reported as “much higher”.

`CCS(=O)(=O)Oc1ccccc1C(=O)Nc1ncc([N+](=O)[O-])s1` [Compound 7, 2-(5-nitrothiazol-2-yl-carbamoyl)phenyl ethanesulfonate] gave a melting point of 178 to 180 °C. Also, in data set [1], the “conversion … in vivo” value is “relatively complete” and the “Area Under concentration-time Curve (AUC) compared to nitazoxanide” value is reported as “much higher”.

Consider `CCCS(=O)(=O)Oc1ccccc1C(=O)Nc1ncc([N+](=O)[O-])s1` [Compound 8, 2-(5-nitrothiazol-2-yl-carbamoyl)phenyl 1-propanesulfonate], for which the melting point was 144 to 146 °C. Besides, in data set [1], the “conversion … in vivo” value was “relatively complete” and the “Area Under concentration-time Curve (AUC) compared to nitazoxanide” value is given as “much higher”.

`CCCCS(=O)(=O)Oc1ccccc1C(=O)Nc1ncc([N+](=O)[O-])s1` [Compound 9, 2-(5-nitrothiazol-2-yl-carbamoyl)phenyl 1-butanesulfonate]: the melting point was in the range of 142 to 144 °C. Moreover, in data set [1], the “conversion … in vivo” value is reported as “relatively complete” and the “Area Under concentration-time Curve (AUC) compared to nitazoxanide” value is listed as “much higher”.

Consider `NCCS(=O)(=O)Oc1ccccc1C(=O)Nc1ncc([N+](=O)[O-])s1` [Compound 12, 2-(5-nitrothiazol-2-yl-carbamoyl)phenyl taurate hydrochloride], for which, in data set [1], the “conversion … in vivo” value is “relatively complete” and the “Area Under concentration-time Curve (AUC) compared to nitazoxanide” value is “much higher”.

As for `COP(=O)(OC)Oc1ccccc1C(=O)Nc1ncc([N+](=O)[O-])s1` [Compound 17, dimethyl 2-(5-nitrothiazol-2-yl-carbamoyl)phenyl phosphate], in data set [1], the “conversion … in vivo” value was “relatively complete” and the “Area Under concentration-time Curve (AUC) compared to nitazoxanide” value is listed as “obviously higher”.

Consider `CCOP(=O)(OCC)Oc1ccccc1C(=O)Nc1ncc([N+](=O)[O-])s1` [Compound 18, diethyl 2-(5-nitrothiazol-2-yl-carbamoyl)phenyl phosphate], for which, in data set [1], the “conversion … in vivo” value is “relatively complete” and the “Area Under concentration-time Curve (AUC) compared to nitazoxanide” value is reported as “obviously higher”.

In the case of `O=C(Nc1ncc([N+](=O)[O-])s1)c1ccccc1O` [tizoxanide], in data set [3], the “50% minimal inhibitory concentration (MIC50)” value was 1 µg/mL and the “90% minimal inhibitory concentration (MIC90)” value was 4 µg/mL.
